Experimental data taken from PubChem BioAssay AID192 (DTP/NCI, 2004).
Values joined by “and” are separate entries in the source; they are usually repeats but may differ in a detail not shown here. Identical values can stand only once. Inconclusive results and toxic doses are left out. Rule for the calls: active = survival T/C of 150% or more; inactive = T/C below 125% in these data.

System: BDF1 mice, B16 melanoma ip, median survival T/C
Experiment: NCI In Vivo Anticancer Drug Screen. Data for tumor model B16 Melanoma (intraperitoneal) in B6D2F1 (BDF1) mice
Conditions: endpoint: median survival time, higher = longer survival
Experimental: The antitumor activity of compounds was measured in mice bearing transplantable tumors. Survival or tumor size were measured and the results are expressed as the measurement made in the treated group (T) divided by the measurement made in the vehicle treated control group (C). The tumor model used in this assay is B16 Melanoma (intraperitoneal) in B6D2F1 (BDF1) mice

[1] = dose: 100.0 mg/kg/injection, schedule: Q01DX009 (ip), vehicle: saline with Tween-80
[2] = dose: 200.0 mg/kg/injection, schedule: Q01DX009 (ip), vehicle: saline with Tween-80
[3] = dose: 400.0 mg/kg/injection, schedule: Q01DX009 (ip), vehicle: saline with Tween-80
[4] = dose: 12.5 mg/kg/injection, schedule: Q01DX009 (ip), vehicle: saline with Tween-80
[5] = dose: 6.25 mg/kg/injection, schedule: Q01DX009 (ip), vehicle: saline with Tween-80
[6] = dose: 12.5 mg/kg/injection, schedule: Q01DX009 (ip), vehicle: saline
[7] = dose: 25.0 mg/kg/injection, schedule: Q01DX009 (ip), vehicle: saline with Tween-80
[8] = dose: 25.0 mg/kg/injection, schedule: Q01DX009 (ip), vehicle: saline
[9] = dose: 50.0 mg/kg/injection, schedule: Q01DX009 (ip), vehicle: saline with Tween-80
[10] = dose: 6.25 mg/kg/injection, schedule: Q01DX009 (ip), vehicle: Klucel (hydroxypropylcellulose) (HPC)
[11] = dose: 12.5 mg/kg/injection, schedule: Q01DX009 (ip), vehicle: Klucel (hydroxypropylcellulose) (HPC)
[12] = dose: 25.0 mg/kg/injection, schedule: Q01DX009 (ip), vehicle: Klucel (hydroxypropylcellulose) (HPC)
[13] = dose: 50.0 mg/kg/injection, schedule: Q01DX009 (ip), vehicle: Klucel (hydroxypropylcellulose) (HPC)
[14] = dose: 100.0 mg/kg/injection, schedule: Q01DX009 (ip), vehicle: Klucel (hydroxypropylcellulose) (HPC)
[15] = dose: 200.0 mg/kg/injection, schedule: Q01DX009 (ip), vehicle: Klucel (hydroxypropylcellulose) (HPC)
[16] = dose: 50.0 mg/kg/injection, schedule: Q01DX009 (ip), vehicle: other
[17] = dose: 100.0 mg/kg/injection, schedule: Q01DX009 (ip), vehicle: other
[18] = dose: 1.56 mg/kg/injection, schedule: Q01DX009 (ip), vehicle: saline
[19] = dose: 3.12 mg/kg/injection, schedule: Q01DX009 (ip), vehicle: saline

Measured: T/C

[Cl][Pt+2][Cl].[NH-]c1cc2ccccc2cc1[NH-]
inactive: dose: 20.0 mg/kg/injection, schedule: Q01DX009 (ip), vehicle: saline with Tween-80 113 % of control | dose: 40.0 mg/kg/injection, schedule: Q01DX009 (ip), vehicle: saline with Tween-80 122 % of control | dose: 80.0 mg/kg/injection, schedule: Q01DX009 (ip), vehicle: saline with Tween-80 120 % of control | dose: 160.0 mg/kg/injection, schedule: Q01DX009 (ip), vehicle: saline with Tween-80 87 % of control | dose: 320.0 mg/kg/injection, schedule: Q01DX009 (ip), vehicle: saline with Tween-80 118 % of control

Cc1ccccc1C(=O)NCC(=O)O
inactive: [1] 107 % of control | [2] 99 % of control | [3] 95 % of control

CC(=Nc1ccccc1)C1=C(O)C(Cc2ccc(O)cc2)NC1=O (centres undefined)
inactive: [4] 111 % of control

CC(C)CC(NC(=O)CNC(=O)/C=C/c1ccco1)C(N)=O (centres undefined)
inactive: [5] 105 % of control | dose: 6.25 mg/kg/injection, schedule: Q01DX009 (ip), vehicle: saline 106 % of control | [4] 105 % of control | [6] 100 % of control | [7] 110 % of control | [8] 95 % of control | [9] 100 % of control and 105 % of control | dose: 50.0 mg/kg/injection, schedule: Q01DX009 (ip), vehicle: saline 97 % of control | [1] 92 % of control | [2] 98 % of control

CCCCCC[C@H]([C@H](C)O)n1cnc2c(N)ncnc21
inactive: [10] 93 % of control | [11] 86 % of control | [12] 93 % of control and 94 % of control | [13] 93 % of control and 106 % of control | [14] 104 % of control

CCCCCCCCCCCCCCP(I)(N(C)C)(N(C)C)N(C)C
inactive: dose: 0.1 mg/kg/injection, schedule: Q01DX009 (ip), vehicle: saline with Tween-80 90 % of control | dose: 0.2 mg/kg/injection, schedule: Q01DX009 (ip), vehicle: saline with Tween-80 94 % of control | dose: 0.38 mg/kg/injection, schedule: Q01DX009 (ip), vehicle: saline with Tween-80 88 % of control | dose: 0.4 mg/kg/injection, schedule: Q01DX009 (ip), vehicle: saline with Tween-80 93 % of control

COc1cc2c3cc1Oc1c(O)c(OC)cc4c1[C@H](Cc1ccc(cc1)Oc1cc(ccc1O)C[C@H]3N(C)CC2)N(C)CC4
inactive: dose: 10.0 mg/kg/injection, schedule: Q01DX009 (ip), vehicle: water 108 % of control | dose: 20.0 mg/kg/injection, schedule: Q01DX009 (ip), vehicle: water 114 % of control | dose: 40.0 mg/kg/injection, schedule: Q01DX009 (ip), vehicle: water 102 % of control and 113 % of control | [9] 118 % of control | dose: 75.0 mg/kg/injection, schedule: Q01DX009 (ip), vehicle: saline with Tween-80 112 % of control | dose: 80.0 mg/kg/injection, schedule: Q01DX009 (ip), vehicle: water 88 % of control and 114 % of control | [1] 118 % of control | dose: 150.0 mg/kg/injection, schedule: Q01DX009 (ip), vehicle: saline with Tween-80 119 % of control

O=C(Nc1ccccc1)c1ccc(C(F)(F)F)cc1O
inactive: [12] 95 % of control | [13] 95 % of control

COc1cc(C)c(C2NC(=O)c3ccccc3N2)cc1C (centres undefined)
inactive: [12] 103 % of control | [13] 113 % of control | [14] 115 % of control | [15] 121 % of control

CCCN(CCC)CC(C)=O
inactive: dose: 100.0 mg/kg/injection, schedule: Q04DX003 (ip), vehicle: Klucel (hydroxypropylcellulose) (HPC) 107 % of control | dose: 200.0 mg/kg/injection, schedule: Q04DX003 (ip), vehicle: Klucel (hydroxypropylcellulose) (HPC) 97 % of control

[I][Pt+2][I].[NH-]CC[NH-]
inactive: dose: 2.75 mg/kg/injection, schedule: Q01DX009 (ip), vehicle: Klucel (hydroxypropylcellulose) (HPC) 110 % of control | dose: 5.5 mg/kg/injection, schedule: Q01DX009 (ip), vehicle: Klucel (hydroxypropylcellulose) (HPC) 109 % of control and 114 % of control | dose: 11.0 mg/kg/injection, schedule: Q01DX009 (ip), vehicle: Klucel (hydroxypropylcellulose) (HPC) 109 % of control and 113 % of control | dose: 22.0 mg/kg/injection, schedule: Q01DX009 (ip), vehicle: Klucel (hydroxypropylcellulose) (HPC) 120 % of control

CCCCCCCCSC1=C(Cl)C(=O)C(OC)=C(OC)C1=O
inactive: dose: 3.13 mg/kg/injection, schedule: Q01DX009 (ip), vehicle: saline with Tween-80 88 % of control

CC1C=CCC(C)(C)C1 (centres undefined)
inactive: [16] 96 % of control | [14] 111 % of control | [17] 92 % of control | dose: 100.0 mg/kg/injection, schedule: Q04DX003 (ip), vehicle: saline 88 % of control | [15] 104 % of control | dose: 200.0 mg/kg/injection, schedule: Q04DX003 (ip), vehicle: saline 97 % of control | dose: 400.0 mg/kg/injection, schedule: Q01DX009 (ip), vehicle: Klucel (hydroxypropylcellulose) (HPC) 105 % of control | dose: 400.0 mg/kg/injection, schedule: Q04DX003 (ip), vehicle: saline 90 % of control

O=CC(O)C(O)C(O)C(O)C(=O)O.[NH-]C1CCCCC1[NH-].[Pt+2] (centres undefined)
inactive: dose: 0.2 mg/kg/injection, schedule: Q01DX009 (ip), vehicle: saline 105 % of control
active: [18] 162 % of control

CN1CCC(C=C2c3ccccc3CCc3ccccc32)C1 (centres undefined)
inactive: [18] 102 % of control | [19] 100 % of control | [8] 102 % of control

FC(F)(F)c1ccc2c(c1)N(CCCNCCN1CCOCC1)c1ccccc1S2
inactive: [18] 105 % of control | dose: 1.56 mg/kg/injection, schedule: Q04DX003 (ip), vehicle: saline 93 % of control and 95 % of control | [19] 88 % of control | dose: 3.12 mg/kg/injection, schedule: Q04DX003 (ip), vehicle: saline 102 % of control | dose: 6.25 mg/kg/injection, schedule: Q04DX003 (ip), vehicle: saline 100 % of control and 105 % of control | [6] 100 % of control | dose: 12.5 mg/kg/injection, schedule: Q04DX003 (ip), vehicle: saline 93 % of control and 107 % of control | dose: 25.0 mg/kg/injection, schedule: Q04DX003 (ip), vehicle: saline 99 % of control and 100 % of control | dose: 50.0 mg/kg/injection, schedule: Q04DX003 (ip), vehicle: saline 90 % of control

O=S(=O)(Nc1ccc(-c2ccccc2)cc1)c1ccccc1
inactive: [9] 100 % of control | [1] 91 % of control | [2] 89 % of control

C/C(CCC(=O)O)=N\NC(N)=O
inactive: [1] 88 % of control | [2] 88 % of control | [3] 100 % of control

CCCCC(=O)N(c1ccc(Nc2c3ccccc3nc3cc([N+](=O)[O-])ccc23)cc1)S(C)(=O)=O
inactive: dose: 3.8 mg/kg/injection, schedule: Q01DX009 (ip), vehicle: saline with Tween-80 102 % of control | dose: 12.5 mg/kg/injection, schedule: Q01DX001 (ip), vehicle: saline with Tween-80 122 % of control | dose: 15.0 mg/kg/injection, schedule: Q01DX009 (ip), vehicle: saline with Tween-80 120 % of control

CCNCc1cc(Nc2cc(C)nc(/N=C(\N)Nc3ccc(Cl)c(Cl)c3)n2)ccc1OC
inactive: [10] 100 % of control | [11] 102 % of control | [12] 91 % of control

CCOC(=O)C(NC(N)=O)C(=O)OCC
inactive: [16] 104 % of control | [17] 104 % of control | dose: 200.0 mg/kg/injection, schedule: Q01DX009 (ip), vehicle: other 103 % of control | dose: 400.0 mg/kg/injection, schedule: Q01DX009 (ip), vehicle: other 104 % of control

O=C(CCl)N1c2ccccc2Sc2ccc(Cl)cc21
inactive: dose: 6.25 mg/kg/injection, schedule: Q01DX009 (ip), vehicle: other 107 % of control | dose: 12.5 mg/kg/injection, schedule: Q01DX009 (ip), vehicle: other 100 % of control | dose: 25.0 mg/kg/injection, schedule: Q01DX009 (ip), vehicle: other 100 % of control | [16] 94 % of control | [17] 87 % of control

BrC1c2cccc3cccc(c23)C1Br (centres undefined)
inactive: [5] 116 % of control | [4] 113 % of control | [7] 124 % of control | [9] 121 % of control

CC(C)CC(Br)C(=O)NCC(=O)NC(Cc1ccccc1)C(=O)O (centres undefined)
inactive: [9] 97 % of control | [1] 95 % of control | [2] 97 % of control
